Key:
[1] = target: MAPK14 (human) (UniProt Q16539); assay: Inhibition of LPS Stimulated TNF Production by U937 Cells; conditions: for inhibition: concentration not given here
[2] = target: MAPK14 (human) (UniProt Q16539); assay: Inhibition of MAPK14 Kinase Activity by PHAS-I Assay; conditions: for inhibition: concentration not given here

Sequence of MAPK14 (human) (Q16539 whole entry, looked up): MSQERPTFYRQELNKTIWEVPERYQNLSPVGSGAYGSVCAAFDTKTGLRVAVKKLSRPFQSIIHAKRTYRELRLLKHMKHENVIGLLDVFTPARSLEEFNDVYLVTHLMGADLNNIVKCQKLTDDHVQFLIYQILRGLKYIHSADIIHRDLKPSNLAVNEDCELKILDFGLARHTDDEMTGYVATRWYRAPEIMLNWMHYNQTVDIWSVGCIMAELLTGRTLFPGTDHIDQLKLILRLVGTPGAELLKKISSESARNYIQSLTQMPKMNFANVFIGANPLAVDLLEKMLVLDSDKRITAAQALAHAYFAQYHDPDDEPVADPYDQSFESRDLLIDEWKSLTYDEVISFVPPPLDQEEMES

## COc1ccc(CC(=O)NCCc2[nH]nc(-c3ccc(F)cc3)c2-c2ccncc2)cc1
[1]
  inhibition: 42%
[2]
  inhibition: 55%

## CCC(=O)C(=O)CCCCCNC(=O)NCCc1[nH]nc(-c2ccc(F)cc2)c1-c1ccncc1
[1]
  IC50: > 1000 nM
[2]
  inhibition: 69%

## C[C@H](NS(=O)(=O)c1ccccc1C(=O)O)c1[nH]nc(-c2ccc(F)cc2)c1-c1ccncc1
[1]
  inhibition: 70%
[2]
  IC50: 760 nM

## COc1cccc(C(=O)NCCc2[nH]nc(-c3ccc(F)cc3)c2-c2ccncc2)c1
[1]
  inhibition: 23%
[2]
  inhibition: 54%

## Cc1c(-c2ccncc2)c(-c2ccc(F)cc2)nn1CC(=O)N[C@@H](C)c1ccccc1
[1]
  inhibition: 46%
[2]
  inhibition: 83%

## COC(=O)C1CN1C(=O)Cn1nc(-c2ccc(F)cc2)c(-c2ccncc2)c1C (stereo not given)
[1]
  inhibition: 24%
[2]
  inhibition: 45%

## CNC(=O)NCCc1[nH]nc(-c2ccc(F)cc2)c1-c1ccncc1
[1]
  inhibition: 68%
[2]
  inhibition: 68%

## O=C(NCCCc1[nH]nc(-c2ccc(F)cc2)c1-c1ccncc1)NCCc1cccnc1
[1]
  inhibition: 18%
[2]
  IC50: 71 nM

## C[C@H](NS(=O)(=O)[C@]12CC[C@@H](CC1=O)C2(C)C)c1[nH]nc(-c2ccc(F)cc2)c1-c1ccncc1
[1]
  inhibition: 39%
[2]
  IC50: 830 nM

## CCOC(=O)CNC(=O)NCc1[nH]nc(-c2ccc(F)cc2)c1-c1ccncc1
[1]
  inhibition: 27%
[2]
  inhibition: 70%

## Cc1cc(Cl)ccc1OCC1SCCN1C(=O)Cn1nc(-c2ccc(F)cc2)c(-c2ccncc2)c1C (stereo not given)
[1]
  IC50: > 10000 nM
[2]
  inhibition: 47%

## C=CCOC(=O)NCCCc1[nH]nc(-c2ccc(F)cc2)c1-c1ccncc1
[1]
  IC50: 590 nM
[2]
  inhibition: 79%

## CC1(C)[C@@H]2CC[C@]1(CS(=O)(=O)NCCc1[nH]nc(-c3ccc(F)cc3)c1-c1ccncc1)C(=O)C2
[1]
  inhibition: 44%
[2]
  IC50: 160 nM

## CC(C)c1ccccc1NC(=O)NCCc1[nH]nc(-c2ccc(F)cc2)c1-c1ccncc1
[1]
  inhibition: 29%
[2]
  inhibition: 80%

## Cc1c(-c2ccncc2)c(-c2ccc(F)cc2)nn1CC(=O)NC1CCCC1
[1]
  inhibition: 36%
[2]
  inhibition: 58%

## C[C@H](NC(=O)c1cc(F)cc(F)c1)c1[nH]nc(-c2ccc(F)cc2)c1-c1ccncc1
[1]
  inhibition: 45%
[2]
  IC50: 62 nM

## COC(=O)C(=O)NCc1[nH]nc(-c2ccc(F)cc2)c1-c1ccncc1
[1]
  inhibition: 79%
[2]
  inhibition: 89%

## O=C(NCCc1[nH]nc(-c2ccc(F)cc2)c1-c1ccncc1)[C@@H]1CCCN1
[1]
  IC50: 760 nM
[2]
  inhibition: 89%

## Cc1ccc(NC(=O)Cn2nc(-c3ccc(F)cc3)c(-c3ccncc3)c2C)cc1
[1]
  IC50: > 10000 nM
[2]
  inhibition: 85%

## CCOC(=O)N1CCC(Nc2n[nH]c(-c3ccc(Cl)cc3)c2-c2ccncc2)CC1
[2]
  IC50: > 100000 nM

## CCCN(CCC)CC(C)NC(=O)Cn1nc(-c2ccc(F)cc2)c(-c2ccncc2)c1C (stereo not given)
[2]
  inhibition: 17%

## CC1CCCCN1CCCNc1cc(-c2c[nH]nc2-c2ccc(F)cc2)ccn1 (stereo not given)
[2]
  IC50: 530 nM

## COCC(=O)N[C@H]1CC[C@@H](c2[nH]nc(-c3ccc(Cl)cc3)c2-c2ccncc2)CC1
[2]
  IC50: 77 nM

## Cc1c(-c2ccncc2)c(-c2ccc(F)cc2)nn1CC(=O)NC1CCC(C(C)(C)C)CC1 (stereo not given)
[2]
  inhibition: 38%

## COc1ccccc1C(=O)N1CCC(c2[nH]nc(-c3ccc(F)cc3)c2-c2ccncc2)CC1
[2]
  IC50: < 100 nM

## CCOC(=O)CC(C)NC(=O)Cn1nc(-c2ccc(F)cc2)c(-c2ccncc2)c1C (stereo not given)
[2]
  inhibition: 43%

## Cc1c(-c2ccncc2)c(-c2ccc(F)cc2)nn1CC(=O)NC1CCN(Cc2ccccc2)C1 (stereo not given)
[2]
  inhibition: 73%

## COc1ccc(NC(=O)NCCc2[nH]nc(-c3ccc(F)cc3)c2-c2ccncc2)c(OC)c1
[2]
  inhibition: 49%

## Cc1c(-c2ccncc2)c(-c2ccc(F)cc2)nn1CC(=O)N1CCOCC1
[2]
  inhibition: 70%

## Cc1c(-c2ccncc2)c(-c2ccc(F)cc2)nn1CC(=O)Nc1ccccc1SCCCc1ccccc1
[2]
  inhibition: 80%

## Cc1c(-c2ccncc2)c(-c2ccc(F)cc2)nn1CC(=O)Nc1ccc(C(F)(F)F)cc1
[2]
  inhibition: 81%

Source: the Kinase Knowledgebase extract (Sharma et al. 2016)
